Assay results as given in article PMC9085577, “Discovery of a Potent and Orally Active Dual GPBAR1/CysLT1R Modulator for the Treatment of Metabolic Fatty Liver Disease” (Frontiers in Pharmacology, 2022).
≈ marks a conversion by molar mass, not a printed value.

Legend:
[1] = Aqueous solubility in PBS pH 7.4 by LC-MS/MS; format: physicochemical
Procedure: Solubility. Ten microliters of a 10 mM solution of tested compounds were diluted either in 490 µL of PBS pH 7.4 or MeOH and agitated for 24 h at 250 rpm. The obtained solutions were first centrifuged for 5 min at 4,000 rpm and then further diluted adding 10 μL of each sample to 490 µL of MeOH. Samples were analyzed by LC-MS/MS and the ratio of mass signal area obtained in PBS and in organic solvent was then measured and used to determine solubility.

LogD octanol/PBS pH 7.4 = format: physicochemical
Procedure: LogD. Measurements 40 µL of selected compounds were dissolved in 1960 µL of PBS pH 7.4/Octanol. Samples were shacked for 2 h at rt, 10 µL of each phase were withdrawn, diluted in 490 µL of MeOH, and analyzed by LC-MSMS. The ratio of mass signal area obtained in octanol and PBS at pH 7.4 and in organic solvent was employed to calculate LogD.

[2] = Metabolic stability in human liver microsomes; format: in vitro ADME
Procedure: (§1) Metabolic Stability. All compounds were tested at the final concentration of 1 µM in a 50 mM potassium phosphate buffer (pH 7.4) containing 1% DMSO as vehicle. For microsomes assay, the incubation mixtures contained 0.15 mg of Human liver microsomes (Sigma-Aldrich, St. Louis, MO, United States), 5 mM MgCl2, 1 mM NADPH, 5 mM glucose 6-phosphate, 0.4 U mL^−1 glucose 6-phosphate dehydrogenase. For S9 fraction analysis, the buffer contained 0.15 mg of S9 proteins (Sigma-Aldrich, St. Louis, MO, United States), 0.3 mM NADPH, 5.6 mM glucose-6-phosphate, 0.6 units/mL glucose-6-phosphate dehydrogenase, 5.8 mM UDP-glucuronic acid, 0.05 mM acetyl-CoA, 0.5 mM dithiothreitol, 0.5 mM 3′-phosphoadenosine 5′-phosphosulfate, 1 mM glutathione, 0.2 mM acetyl carnitine, 4 units/mL carnitine acetyl transferase, 0.5 mM glycine, and 0.5 mM taurine.
(§2) Samples were kept at 37°C and aliquots were removed at 0, 5, 15, 30, 45, 60, 90, 120, 150 min after protein additions. The reaction was stopped by adding 200 µL of ice-cold acetonitrile to withdrawn aliquots. After 2 h, samples were centrifuged for 10 min at 10,000 rpm, and supernatants were subjected to LC-MS/MS analysis.
The slope of the linear regression of the curve obtained reporting the natural logarithm of compound area versus incubation time (−k) was used in the conversion to in vitro t1/2 values by t1/2 = […].
In vitro intrinsic clearance (Clint expressed as µL/min/mg) was calculated according to the following formula: Clint = Vx 0.693/t1/2 were V = volume of reaction (µL)/protein in the incubation (mg). Testosterone was used as a positive control for microsome and phase I enzymes, and 7-hydroxycoumarin was used as positive control for phase II enzymes.

[3] = Metabolic stability in liver S9 fraction; format: in vitro ADME
Procedure: as §1
as §2, with “analysis. […]” for “analysis.”
In vitro intrinsic clearance (Clint expressed as µL/min/mg) was calculated according to the following formula: Clint = Vx 0.693/t1/2 were V = volume of reaction (µL)/protein in the incubation (mg). […]

[4] = system: eWAT and colon mRNA expression; test: Quantitative real-time PCR of eWAT and colon of HFD-F mice; format: in vivo; conditions: 30 mg/kg/day by gavage
Text: C57BL/6J male mice were fed a high fat diet (HFD) containing 59 KJ% fat plus 1% cholesterol, w/o sugar (ssniff ® EF R/M acc. D12330 mod. 22,7 ME/kg) and fructose (HFD-F) in drinking water (42 g/L), or normal chow diet for 61 days. Food intake was estimated as the difference of weight between the offered and the remnant amount of food at 3-days intervals. The food was provided as pressed pellets and the residual spillage was not considered. After 7 days, HFD-F mice were randomized to receive HFD-F alone or in combination with compound 2 (30 mg/kg/day) by gavage until the end of the experiment. Doses of each agent were chosen according to previously published data. Mice were housed under controlled temperature (22°C) and photoperiods (12:12-h light/dark cycle), allowed unrestricted access to standard mouse chow and tap water. The experimental protocol was approved by the Animal Care and Use Committee of the University of Perugia and by the Italian Minister of Health and Istituto Superiore di Sanità (Italy) and was in agreement with the European guidelines for use of experimental animals (permission n. 583/2017-PR). The general health of the animals was monitored daily by the Veterinarian in the animal facility. At the day of sacrifice, fed mice were deeply anesthetized with a mixture of tiletamine hypochloride and zolazepam hypochloride/xylazine at a dose of 50/5 mg/kg and sacrificed before 12 a.m.
RNA was extracted from eWAT and colon with Direct-zol™ RNA MiniPrep w/Zymo-Spin™ IIC Columns (Zymo Research, Irvine, CA) and it was subjected to reverse transcription with FastGene Scriptase Basic Kit (Nippon Genetics Europe) in a 20 μL reaction volume.
For real time PCR, 50 ng cDNA were amplified in a 20 μL solution containing 200 nM of each primer and 10 μL of SYBR Select Master Mix (Thermo Fisher Scientific, Waltham, MA, United States). All reactions were performed in triplicate, and the thermal cycling conditions were as follows: 10 min at 95°C, followed by 40 cycles of 95°C for 10 s and 60°C for 45 s with QuantStudio™ 3 Real-Time PCR System (Applied Biosystems). The relative mRNA expression was calculated and expressed as 2−(ΔΔCt). Expression of the respective gene was normalized against Gapdh mRNA as an internal control. The following primers for Real-Time PCR were used: mouse-Gapdh: ctgagtatgtcgtggagtctac and gttggtggtgcaggatgcattg; mouse-Srebf1: gatcaaagaggagccagtgc and tagatggtggctgctgagtg; mouse-Fasn: tcaagatgaaggtggcagaggtgct and ttgagcagtgccgggattcgg; mouse-Pgc1α: cttagcactcagaaccatgcag and aatgctcttcgctttattgctc; mouse-Fxr: actggaccacgaagatcagatt and gagcgtactcctcctgagtcat; mouse-adiponectin: tgacagatcagctcgagtgg and cagtgccgtcagttcttgtg; mouse-Tnf-α: ccaccacgctcttctgtcta and agggtctgggccatagaact; mouse-ucp2: ttgcccgtaatgccattgtc and gcaagggaggtcatctgtca; mouse-cd11b gtcagagtctgcctccgtgt and cagggtctaaagccaggtca; mouse-pparγ: gccagtttcgatccgtagaa and aatccttggccctctgagat; mouse-Il-1β: gctgaaagctctccacctca and aggccacaggtattttgtcg; mouse-Gcg: ccaagattttgtgcagtggtt and ccttcagcatgcctctcaaa.

**Q.** Which results are given for `O=C(O)c1cccc(-c2ccc(OCc3ccc4ccccc4n3)cc2)c1` [Compound 2, 4'-(quinolin-2-ylmethoxy)-[1,1′-biphenyl]-3-carboxylic acid]?
**A.** Solubility [1]: good; solubility at 24 h ([1]; PBS pH 7.4): 66 µM (≈ 23.5 µg/mL); LogD (LogD octanol/PBS pH 7.4): proper; logD at 2 h (LogD octanol/PBS pH 7.4; octanol/PBS): 2; stability to Phase I enzymes contained in microsomal fraction [2]: highly stable; microsomal CLint at 1 µM ([2]; pH 7.4, human liver microsomes, 1 µM): 4 µL/min/mg; half-life at 1 µM ([2]; pH 7.4, human liver microsomes, 1 µM, read-out: Microsomes t1/2): 9.63 h; microsomal CLint at 1 µM ([3]; pH 7.4): 6 µL/min/mg; half-life at 1 µM ([3]; pH 7.4, read-out: S9 fraction t1/2): 6.42 h; colon expression of Gcg [4]: upregulated; colon expression of Il-1β [4]: strongly reduced; eWAT expression of Cd11b [4]: robustly reduced; eWAT expression of Tnf-α [4]: robustly reduced; eWAT expression of Ucp2 [4]: upregulated
